From patent US20180207228A1, “PEPTIDE COMBINATIONS AND USES THEREOF FOR TREATING GRASS ALLERGY” (ALK-Abelló A/S, priority 2015, published 2018)
“Also recorded” adds a separate entry of the source. Where no end group is shown, it is not given here.

Columns and labels:
Format in all cases: cell-based, human
[1] = tested on: release of IL-5 upon T cell activation; test: Fluorospot assay, IL-5 release (DK1-TCL01, US1-TCL01); conditions: head prints TCL-02 DK1; text: 25 TCL-01 DK1 lines
Procedure, shortened: (§1)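 Grass-allergic donors' CD8-depleted PBMCs were expanded 14 days with natural grass allergens plus IL-2 to give TCL01 lines. These were incubated 20 h at 37° C with single peptides or peptide mixes at 2 μg/ml, and spot-forming cells were counted. Hit: SI≥2, p≤0.05, Poisson ≤0.05, ≥20 SFC/10^6 cells.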

[2] = tested on: release of IFN-γ upon T cell activation; test: Fluorospot assay, IFN-γ release (DK1-TCL01, US1-TCL01); conditions: head prints TCL-02 DK1; 17 TCL-01 DK1 lines
Procedure, shortened: as §1

[3] = tested on: grass allergic donor derived T cell lines (TCL-02 DK-2); test: Cross-reactivity of homologue peptides, proliferation on TCL02-DK2 (Study XR1); conditions: 2 μg/ml, TCL02-DK2, 21 donors
Experimental: To measure the experimental cross-reactivity the proliferation assay of Example 3 was carried out on 21 grass allergic donors (TCL02-DK2). […] Cross-reactivity to Phleum pratense peptides with either close (Lolium perenne (Lol p)) or distant (Phalaris aquatica (Pha a), Cynodon dactylon (Cyn d)) species was experimentally investigated.
For analysing the cross-reactivity data, it was investigated if a donor responds to both native and homologue peptide, XY correlation plots were made where the donor responses to native peptides were plotted versus the donor responses to homologues. […] If less than five donors were responding to the parent peptides, then the data was considered to be in-conclusive, and were thus labelled with “-”. For some of the peptides the analysis was further supported by performing a Spearman r-Non Parametric test (data not shown).
Further the magnitude of T cell response from a parent peptide as defined herein and homologue response were plotted in a XY plot by using GraphPad Prism 6.
To measure the experimental cross-reactivity, the proliferation assay of Example 3 was carried out on 21 grass pollen allergic donors (TCL02-DK2, Study XR1) and 20 grass pollen allergic donors (TCL03−DK1+DK2, Study XR2). […] In Study XR1, Cross-reactivity to Phleum pratense peptides with either close (Lolium perenne-Lol p) or distant ([…]-Pha a, Cynodon dactylon-Cyn d) species was experimentally investigated. In Study XR1, 67 homologue peptides corresponding to 41 native Phleum pratense peptides were investigated together with the 41 Phleum pratense peptides at a concentration of 2 μg/ml. Similarly, study XR2 was carried out on 20 grass pollen allergic donors where donor derived TCL-03 lines were used to investigate Phleum pratense cross-reactivity to Poa pratensis (Poa p), Dactylis glomerata (Dac g), Festuca pratensis (Fes p), Paspalum notatum (Pas n), Sorghum halepense (Sor h), Lolium perenne (Lol p), Phalaris aquatica (Pha a) and Cynodon dactylon (Cyn d).

[4] = tested on: grass pollen allergic donor derived TCL-03 lines; test: Extended cross-reactivity study, proliferation on TCL03 DK1+DK2 (Study XR2), scoring; conditions: study XR2; for Cross-reactivity score, Cyn d: homologue from Cyn d; for Cross-reactivity score, Cyn d / Cross-reactivity score, Dac g / Cross-reactivity score, Fes p / Cross-reactivity score, Lol p / Cross-reactivity score, Pas n / Cross-reactivity score, Pha a / Cross-reactivity score, Poa p / Cross-reactivity score, Sor h: score 0 to 7; for Cross-reactivity score, Dac g: homologue from Dac g; for Cross-reactivity score, Fes p: homologue from Fes p; for Cross-reactivity score, Lol p: homologue from Lol p; for Cross-reactivity score, Pas n: homologue from Pas n; for Cross-reactivity score, Pha a: homologue from Pha a; for Cross-reactivity score, Poa p: homologue from Poa p; for Cross-reactivity score, Sor h: homologue from Sor h; for Cross-reactivity sum: scores of all species added; for Cross-reactivity/species: sum divided by the number of species measured

Substance	IL-5-Fluorospotr % donor coverage (TCL-02 DK1) [1]	IFN-gamma % donor coverage (TCL-02 DK1) [2]	experimental cross-reactivity [3]	Cross-reactivity score, Cyn d [4]	Cross-reactivity score, Dac g [4]	Cross-reactivity score, Fes p [4]	Cross-reactivity score, Lol p [4]	Cross-reactivity score, Pas n [4]	Cross-reactivity score, Pha a [4]	Cross-reactivity score, Poa p [4]	Cross-reactivity score, Sor h [4]	Cross-reactivity sum [4]	Cross-reactivity/species [4]
VATLSEALRIIAGTLEVHAV-OH [compound 67]	32.00%	4.00%	showed cross-reactivity										
WGAIWRIDTPDKLTGPFTVR-OH [peptide 211]				0.5	5	4	4	1	7	3	0.5	25	3.12
TDDNEEPIAPYHFDLSGHAF-OH [peptide 204]			showed cross-reactivity; also recorded: good cross-reactivity	1.5	7	7	7	1	7	1.5	2	34	4.25
PANDKFTVFEAAFNNAIKAS-OH [compound 70]	16.00%	0.00%	showed cross-reactivity; also recorded: good cross reactivity										
STGGAYESYKFIPALEAAVK-OH [compound 71]	32.00%	0.00%	showed cross-reactivity; also recorded: very good cross-reactivity		5	5	5		5	4		24	4.8
AYESYKFIPALEAAVKQAYA-OH [peptide 285]					6	6	6		6	7		31	6.2
DKYRTFVATFGAASNKAFAE-OH [peptide 231]			showed cross-reactivity										
